Source: article PMC4448943 (Neurotoxicology, 2014)
Like-named read-outs stand apart in the source and are kept apart here.

Columns and labels:
rats = details: rat, in vivo, cited from earlier work
rat hippocampal MAGL = biological target: T1, rat hippocampal MAGL (Rattus norvegicus, UniProt Q8R431); test: In vitro inhibition of hippocampal MAGL activity; format: biochemical; details: CPO more potent than PO
T1 sequence (Q8R431 1-303): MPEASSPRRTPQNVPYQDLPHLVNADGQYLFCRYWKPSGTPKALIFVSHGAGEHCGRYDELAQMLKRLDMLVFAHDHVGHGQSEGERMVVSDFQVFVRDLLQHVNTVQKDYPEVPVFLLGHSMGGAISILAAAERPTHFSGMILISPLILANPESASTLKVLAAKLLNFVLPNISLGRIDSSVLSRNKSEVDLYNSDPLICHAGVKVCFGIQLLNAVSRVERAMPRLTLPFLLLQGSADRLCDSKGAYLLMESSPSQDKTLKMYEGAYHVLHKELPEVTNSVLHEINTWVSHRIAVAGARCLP

[1] = test system: Adult male Sprague-Dawley rats; details: rat, in vivo
rat hippocampal AChE = biological target: T2, rat hippocampal AChE (Rattus norvegicus, UniProt P37136); format: biochemical
T2 sequence (P37136 32-614): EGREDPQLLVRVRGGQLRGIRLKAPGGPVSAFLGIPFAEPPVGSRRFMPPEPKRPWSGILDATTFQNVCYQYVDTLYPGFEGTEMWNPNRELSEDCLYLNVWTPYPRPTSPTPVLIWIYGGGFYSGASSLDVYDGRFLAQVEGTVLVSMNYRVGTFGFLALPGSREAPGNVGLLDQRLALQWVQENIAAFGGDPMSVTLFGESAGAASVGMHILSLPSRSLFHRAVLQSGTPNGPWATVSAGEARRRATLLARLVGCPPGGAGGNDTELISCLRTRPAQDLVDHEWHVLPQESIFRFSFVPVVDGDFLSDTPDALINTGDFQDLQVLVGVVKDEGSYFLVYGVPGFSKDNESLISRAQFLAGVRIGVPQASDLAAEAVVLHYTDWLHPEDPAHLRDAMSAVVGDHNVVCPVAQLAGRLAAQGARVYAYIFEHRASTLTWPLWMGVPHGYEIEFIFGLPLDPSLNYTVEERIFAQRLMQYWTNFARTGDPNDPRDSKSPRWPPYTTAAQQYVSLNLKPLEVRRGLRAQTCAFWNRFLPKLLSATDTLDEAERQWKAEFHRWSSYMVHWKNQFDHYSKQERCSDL

hippocampal AChE = biological target: T3, hippocampal AChE (Rattus norvegicus, UniProt P37136); format: in vivo
T3 sequence (P37136 32-614): T2 sequence (P37136 32-614)

rat hippocampal FAAH = biological target: T4, rat hippocampal FAAH (Rattus norvegicus, UniProt P97612); test: In vitro inhibition of hippocampal FAAH activity; format: biochemical
T4 sequence (P97612 1-579): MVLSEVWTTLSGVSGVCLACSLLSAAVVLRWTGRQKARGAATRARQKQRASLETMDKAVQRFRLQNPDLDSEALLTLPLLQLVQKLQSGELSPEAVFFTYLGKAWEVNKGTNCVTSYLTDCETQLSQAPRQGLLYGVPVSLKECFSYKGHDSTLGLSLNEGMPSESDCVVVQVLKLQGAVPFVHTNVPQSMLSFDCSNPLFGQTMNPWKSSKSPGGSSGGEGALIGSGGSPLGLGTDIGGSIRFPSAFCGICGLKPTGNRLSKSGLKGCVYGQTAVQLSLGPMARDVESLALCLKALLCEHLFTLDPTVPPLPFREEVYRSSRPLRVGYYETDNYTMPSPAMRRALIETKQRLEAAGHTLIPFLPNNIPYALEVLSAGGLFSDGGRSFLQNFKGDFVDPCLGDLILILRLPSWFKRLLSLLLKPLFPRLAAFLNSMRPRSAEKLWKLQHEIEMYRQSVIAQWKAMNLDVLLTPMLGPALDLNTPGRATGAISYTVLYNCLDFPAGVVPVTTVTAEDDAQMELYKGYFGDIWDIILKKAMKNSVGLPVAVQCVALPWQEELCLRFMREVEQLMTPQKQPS

hippocampal MAGL = biological target: T5, hippocampal MAGL (Rattus norvegicus, UniProt Q8R431); format: in vivo; details: four hours after dosing; PO 0.3 and 0.6 mg/kg sc, CPO 6 and 12 mg/kg sc
T5 sequence (Q8R431 1-303): T1 sequence (Q8R431 1-303)

[2] = test system: Adult male Sprague-Dawley rats; details: rat, in vivo; remark: listed apart in the source
hippocampal FAAH = biological target: T6, hippocampal FAAH (Rattus norvegicus, UniProt P97612); details: four hours after dosing, PO 0.3 and 0.6 mg/kg sc, CPO 6 and 12 mg/kg sc
T6 sequence (P97612 1-579): T4 sequence (P97612 1-579)

SMILES: Cc1c(C(=O)NN2CCCCC2)nn(-c2ccc(Cl)cc2Cl)c1-c1ccc(I)cc1 [AM251, N-(piperidin-1-yl)-5-(4-iodophenyl)-1-(2,4-dichlorophenyl)-4-methyl-1H-pyrazole-3-carboxamide]
- Influence on responses to chlorpyrifos (rats): no influence

SMILES: Cc1c(C(=O)c2cccc3ccccc23)c2cccc3c2n1[C@H](CN1CCOCC1)CO3 [WIN 55,212-2]
- Effect on signs of cholinergic toxicity following acute PO exposure (rats; po): reduced

SMILES: CCOP(=O)(OCC)Oc1nc(Cl)c(Cl)cc1Cl [chlorpyrifos oxon]
- In vitro potency at inhibiting MAGL relative to PO (rat hippocampal MAGL): ≈ 19 fold
- Involuntary movements (tremors) [1]: dose-related
- SLUD signs (primarily defecation and lacrimation) [1]: slightly increased
- In vitro potency at inhibiting AChE relative to PO (rat hippocampal AChE): ≈ 2 fold
- In vivo inhibition of hippocampal AChE activity (hippocampal AChE; rat, in vivo): 80–90%
- IC50 (rat hippocampal FAAH): 0.071 µM
- In vitro potency at inhibiting FAAH relative to PO (rat hippocampal FAAH; CPO more potent than PO): ≈ 8 fold
- In vivo inhibition of hippocampal MAGL activity (hippocampal MAGL): 37–50%
- Lethality ([2]; male, Sprague-Dawley): 0/6
- Lethality [2]: no lethality
- In vivo inhibition of hippocampal FAAH activity (hippocampal FAAH): 90–95%
- In vivo inhibition of hippocampal FAAH activity (hippocampal FAAH; listed as CPO): 80–90%

SMILES: CCOP(=O)(OCC)Oc1ccc([N+](=O)[O-])cc1 [paraoxon, Paraoxon]
- Involuntary movements (tremors) [1]: dose-related
- SLUD signs (primarily defecation and lacrimation) [1]: slightly increased
- In vivo inhibition of hippocampal AChE activity (hippocampal AChE; four hours after dosing, PO 0.3 and 0.6 mg/kg sc, CPO 6 and 12 mg/kg sc): 80–90%
- IC50 (rat hippocampal FAAH): 0.562 µM
- In vivo inhibition of hippocampal MAGL activity (hippocampal MAGL): neither dosage of paraoxon affected MAGL activity
- Lethality ([2]; male, Sprague-Dawley, 0.6 mg/kg): 2/14
- In vivo inhibition of hippocampal FAAH activity (hippocampal FAAH): 90–95%
- In vivo inhibition of hippocampal FAAH activity (hippocampal FAAH; listed as PO): 80–90%
